Experimental data from paper PMC10216478, “Development of a Non-Peptide Angiotensin II Type 1 Receptor Ligand by Structural Modification of Olmesartan as a Biased Agonist” (Biomedicines, 2023).
Numbering of substitutions follows the chain as printed.

Columns and labels:
AT1 L112A receptor = target: T1, AT1 L112A receptor (Rattus norvegicus, UniProt P25095, L112A); assay: Immunoblotting of ERK 1/2 activation in COS7 cells overexpressing AT1-L112A receptor; assay type: cell-based; conditions: 1 µM ligands or 0.1 µM Ang II, 10 min, n = 5, vs. (-)
T1 construct: expressed in transfected cells; host or cells: COS7
T1 sequence (P25095 1-359 L112A): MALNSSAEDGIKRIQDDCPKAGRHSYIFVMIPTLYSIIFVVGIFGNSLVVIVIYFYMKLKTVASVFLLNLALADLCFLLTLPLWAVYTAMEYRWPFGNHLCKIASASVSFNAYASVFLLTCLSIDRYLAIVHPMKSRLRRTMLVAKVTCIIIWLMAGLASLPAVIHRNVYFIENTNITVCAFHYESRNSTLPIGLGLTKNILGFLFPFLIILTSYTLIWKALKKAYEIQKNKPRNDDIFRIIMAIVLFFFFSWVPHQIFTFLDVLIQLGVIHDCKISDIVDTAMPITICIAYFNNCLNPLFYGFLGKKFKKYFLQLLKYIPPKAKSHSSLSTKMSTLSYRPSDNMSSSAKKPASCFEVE
Protocol: (§1) The synthetic rat AT1 receptor gene, which was cloned in the shuttle expression vector pMT-2, was used for expression and mutagenesis, as described previously. […] In the experiments, cells were grown without a cell-growth supplement. To express the AT1 receptor protein, 10 µg of purified plasmid DNA per 10^7 cells was used in the transfection. Wild-type and mutated AT1 receptors were transiently transfected into cells using Lipofectamine 2000 liposomal reagent (Roche Applied Science, Penzberg, Germany). Cells were plated and grown and were 70–90% confluent at the time of transfection. We incubated plasmid DNA (10 µg)–lipid (10 µL) complexes for 5 min at room temperature and added and incubated the complexes with cells for 24 h. We then analyzed the parameters in transfected cells. […] Transfected cells that had been cultured for 48–72 h were harvested. Cell membranes were prepared using the nitrogen Parr bomb disruption or freeze–thaw methods.
In in vitro studies, ERK 1/2 activation by 1 µM ligands or 0.1 µM Ang II incubated for 10 min was measured using COS7 cells that overexpressed AT1 wild-type and mutant receptors. ERK activity was measured in cells maintained for 18 h in DMEM containing 0.1% serum. At the end of the stimulation, the culture medium was removed by aspiration, the cells were washed with ice-cold phosphate-buffered saline, and the dishes were frozen in liquid nitrogen. The cells were scraped using a scraper after melting, and the scraped cells were transferred to a tube. We homogenized the cells in lysis buffer plus protease inhibitors and determined the protein concentration using the bicinchoninic acid method. […] We fractionated total proteins using sodium dodecyl sulfate polyacrylamide gel electrophoresis; we then transferred the proteins to a Hybond nitrocellulose membrane and blocked the blotted membranes with 10% bovine serum albumin in tris-buffered saline buffer (50 mM Tris–HCl pH 7.6, 150 mM NaCl) for 1 h at room temperature. […] An enhanced chemiluminescent substrate system (Amersham, Buckinghamshire, UK) was used. The signal was independently quantified by digital image analysis (ImageJ, National Institutes of Health, Bethesda, MD, USA).

AT1 wild-type receptor = target: T2, AT1 wild-type receptor (Rattus norvegicus, UniProt P25095); assay: IP production assay in COS7 cells expressing AT1 wild-type receptor; assay type: cell-based; conditions: for Effect on IP production: AT1 wild-type receptor, COS7 cells, 1 µM ligands or 0.1 µM Ang II, 30 min, n = 5, vs. (-); for Mode of action with regard to IP production: authors' classification from IP production at AT1 wild-type receptor
T2 construct: expressed in transfected cells; host or cells: COS7
T2 sequence (P25095 1-359): T1 sequence (P25095 1-359 L112A) with A112L
Protocol: as §1
Ligand (such as agonist or antagonist)-induced IP production through the AT1 receptor in transfected COS7 cells transiently expressing the AT1 receptor was measured to evaluate cell signaling as a second messenger for controlling blood pressure, since the increases in the intracellular Ca^2+ concentration were the result of IP accumulation, which indicated vasoconstriction. As a surrogate model with higher levels of AT1 receptor expression, COS7 cells are suitable for IP measurement because it is easy to detect differences in IP production. Cells were labeled for 24 h with [^3H]-myoinositol at 37 °C in DMEM containing 10% FBS. Next, the cells were washed with buffer 3 times and incubated with a medium containing 10 mM LiCl for 20 min; 0.1 µM Ang II or 1 µM ligands were added and incubation was continued for another 30 min at 37 °C. After incubation, the medium was removed, and total soluble IP was extracted from the cells using the perchloric acid extraction method, as described previously. Cells were plated at a field density of 5 × 10^3 cells/cm^2 in 60 mm dishes and cultured in a fresh growth medium at 37 °C in a DMEM 5% CO2 incubator. […] The culture medium was changed 48 h after transfection and 1.5 mL of 1 μCi/mL of [^3H]-myoinositol was added to each 60-mm dish at 37 °C in DMEM containing 10% FBS. After labeling, the cells were washed with buffer 3 times and incubated with a medium containing 10 mM LiCl for 20 min. The indicated concentration of ligands was added and incubation was continued for an additional 30 min at 37 °C. After incubation, the medium was removed, and total soluble IP was extracted from the cells using the perchloric acid extraction method. Total IP production was expressed as the sum of radioactivity, as described previously.

CCCc1nc(C(C)(C)O)c(C(N)=O)n1Cc1ccc(-c2cc(Cc3ccc(O)cc3)ccc2-c2nnn[nH]2)cc1 [R794847]
ERK1/2 activation (AT1 L112A receptor): activated ERK1/2 | Effect on IP production (AT1 wild-type receptor): increased IP production | Mode of action with regard to IP production (AT1 wild-type receptor): agonist

CCCc1nc(C(C)(C)O)c(C(=O)O)n1Cc1ccc(-c2cc(Cc3ccc(O)cc3)ccc2-c2nnn[nH]2)cc1 [R781253]
ERK1/2 activation (AT1 L112A receptor): activated ERK1/2 | Effect on IP production (AT1 wild-type receptor): significantly decreased | Mode of action with regard to IP production (AT1 wild-type receptor): inverse agonist

CCCc1nc(C(C)(C)O)c(C(N)=O)n1Cc1ccc(-c2ccccc2-c2nnn[nH]2)cc1 [R239470]
ERK1/2 activation (AT1 L112A receptor): but not R239470, activated ERK1/2 | Effect on IP production (AT1 wild-type receptor): did not change IP production | Mode of action with regard to IP production (AT1 wild-type receptor): neutral antagonist

CCCc1nc(C(C)(C)O)c(C(=O)O)n1Cc1ccc(-c2ccccc2-c2nnn[nH]2)cc1 [Olmesartan, olmesartan]
ERK1/2 activation (AT1 L112A receptor): did not change ERK1/2 activation | Effect on IP production (AT1 wild-type receptor): significant reduction in basal IP production levels | Mode of action with regard to IP production (AT1 wild-type receptor): inverse agonism
